Test results as given in paper PMC4525288, “Structures of FolT in substrate-bound and substrate-released conformations reveal a gating mechanism for ECF transporters” (Nature Communications, 2015).

Key:
EfFolT [1] = biological target: T1, EfFolT (Enterococcus faecalis, UniProt Q837A3, K145A); test: biochemical
T1 construct: gene EF_0940

EfFolT [2] = biological target: T2, EfFolT (Enterococcus faecalis, UniProt Q837A3, R26A); test: biochemical
T2 construct: gene EF_0940

EfFolT [3] = biological target: T3, EfFolT (Enterococcus faecalis, UniProt Q837A3, K36A); test: biochemical
T3 construct: gene EF_0940

EfFolT [4] = biological target: T4, EfFolT (Enterococcus faecalis, UniProt Q837A3, K145T); test: biochemical
T4 construct: gene EF_0940

EfFolT [5] = biological target: T5, EfFolT (Enterococcus faecalis, UniProt Q837A3, N117A); test: biochemical
T5 construct: gene EF_0940

EfFolT [6] = biological target: T6, EfFolT (Enterococcus faecalis, UniProt Q837A3, T81A); test: biochemical
T6 construct: gene EF_0940

EfFolT [7] = biological target: T7, EfFolT (Enterococcus faecalis, UniProt Q837A3, K36R); test: biochemical
T7 construct: gene EF_0940

EfFolT [8] = biological target: T8, EfFolT (Enterococcus faecalis, UniProt Q837A3, Y129A); test: biochemical
T8 construct: gene EF_0940

EfFolT [9] = biological target: T9, EfFolT (Enterococcus faecalis, UniProt Q837A3, T121A); test: biochemical
T9 construct: gene EF_0940

EfFolT [10] = biological target: T10, EfFolT (Enterococcus faecalis, UniProt Q837A3); test: isothermal titration calorimetry; crystal structure […] A; format: binding; settings: read-out: Dissociation constant/KD
T10 construct: gene EF_0940; full-length S component without ECF module; N-terminal His6 tag (pET28a, NdeI/XhoI), E. coli BL21(DE3), detergent-purified
T10 sequence (Q837A3 1-179): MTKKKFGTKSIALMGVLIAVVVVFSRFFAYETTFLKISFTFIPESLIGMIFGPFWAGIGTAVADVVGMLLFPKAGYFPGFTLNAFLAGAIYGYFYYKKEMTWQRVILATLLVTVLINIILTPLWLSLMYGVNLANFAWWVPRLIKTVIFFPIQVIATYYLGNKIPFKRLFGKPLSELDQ

EfFolT [11] = biological target: T11, EfFolT (Enterococcus faecalis, UniProt Q837A3, F80W); test: biochemical
T11 construct: gene EF_0940

`Nc1nc2ncc(CNc3ccc(C(=O)N[C@@H](CCC(=O)O)C(=O)O)cc3)nc2c(=O)[nH]1` [folate] showed a Kd (EfFolT [1]) of 3300 ± 198 nM, a Kd (EfFolT [2]) of 252 ± 22 nM and a Kd (EfFolT [3]) of 5400 nM. The Kd (EfFolT [4]) was 3690 nM, the Kd (EfFolT [5]) was 68.6 ± 6.4 nM and the Kd (EfFolT [6]) was 813 ± 162 nM. For the same compound, the Kd (EfFolT [7]) was 91.5 ± 7.5 nM, the Kd (EfFolT [8]) was 635 ± 33.6 nM and the Kd (EfFolT [9]) was 288 ± 21.1 nM. The Kd (EfFolT [10]) was 29.8 ± 4.7 nM and the Kd (EfFolT [11]) was 499 ± 25.8 nM.
